Legend:
[1] = system: P388 murine leukemia cell line; assay: Antiproliferative effect on P388 cells (MTT, 48-hr exposure); type: cell-based; conditions: Mus musculus, read-out: P388 IC-50
Experimental: (§1) Discodermolide and discodermolide analogs were analyzed as to their effects on proliferation of A549 human adenocarcinoma and P388 murine leukemia cell lines. P388 cells were obtained from Dr. R. Camalier, National Cancer Institute, Bethesda, Md., and A549 cells were obtained from American Type Culture Collection, Rockville, Md. All cell lines were maintained in Roswell Park Memorial Institute (RPMI) medium 1640 supplemented with 10% Rehatuin™ fetal calf serum (Intergen Company, Purchase, N.Y.). All cell lines are cultured in plastic tissue culture flasks and kept in an incubator at 37° C. in humidified air containing 5% CO2. Prior to testing, antibiotic-free stock cultures of each of the cell lines were subcultured to 10^6 cells/ml by dilution in fresh growth medium at 2 to 3 day intervals.
(§2) To assess the antiproliferative effects of agents against the P388 cell line, 200 μl cultures (96-well tissue culture plates, Nunc, Denmark) are established at 1×10^5 cells/ml in drug-free medium or medium containing the test agent at 10.0, 1.0, 0.10 and 0.010 μg/ml. The solvent for all dilutions is ethanol. All experimental cultures are initiated in medium containing Gentamycin sulfate (50 μg/ml; Schering Corporation, Kenilworth, N.J.).
(§3) After 48-hr exposures, P388 cells are enumerated using 3-[4,5-Dimethylthiazol-2-yl]-2,5-diphenyltetrazolium bromide (MTT) (M. C. Alley, et al., Cancer Res. 48:589, 1988). Similar procedures are utilized for A549 cells which require an additional 48 hr exposure prior to MTT addition. Results are expressed as percent inhibition compared to the negative (no drug) control. Positive drug controls are included to monitor drug sensitivity of each of the cell lines. These include varying dilutions of 5-fluorouracil and adriamycin.
(§4) To quantitate the effects on cell proliferation and resulting IC50 values, 75 μl of warm growth media containing 5 mg/ml MTT is added to each well, cultures returned to the incubator, and left undisturbed for 90 minutes. To spectrophotometrically quantitate formation of reduced formazan, plates are centrifuged (900× g, 5 minutes), culture fluids removed by aspiration, and 200 μl of acidified isopropanol (2 ml concentrated HCl/liter isopropanol) added per well. The absorbance of the resulting solutions is measured at 570 nm with a plate reader (TECAN Spectra II PlateReader, TECAN U.S., Research Triangle Park, N.C.) and a 650 nm reference filter. The absorbance of tests wells is divided by the absorbance of drug-free wells, and the concentration of agent that results in 50% of the absorbance of untreated cultures (IC50) is determined by linear regression of logit-transformed data (D. J. Finney, Statistical Method in Biological Assay, third ed., pp.316-348, Charles Griffin Co., London, 1978). A linear relationship between tumor cell number and formazan production has been routinely observed over the range of cell densities observed in these experiments. Two standard drug controls are included in each assay as a check to monitor the drug sensitivity of each of the cell lines and IC50 values are determined for each drug-cell combination.

[2] = system: A549 human adenocarcinoma cell line; assay: Antiproliferative effect on A549 cells (MTT); type: cell-based; conditions: additional 48 hr exposure, read-out: A549 IC-50
Experimental: as §1
as §3, with “Similar procedures are utilized for A549 cells which require an additional 48 hr exposure prior to MTT addition.” left out
as §4

[3] = system: microtubule network of cells; assay: Microtubule bundling patterns in cells by immunofluorescence; type: cell-based; conditions: for Microtubule bundling: concentration not given
Experimental: Discodermolide, discodermolide analogs and paclitaxel were evaluated as to their effects on the microtubule network of cells using FITC-labeled, anti-alpha-tubulin monoclonal antibodies.
On day 1, 2.5×10^5 adherent tumor cells were cultured in RPMI 1640 tissue culture medium supplemented with 10% fetal calf serum (TCM) overnight at 37° C. in 5% CO2 on 22 mm^2 coverslips in 6-well microtiter plates. […] On day 3, TCM was removed and cells attached to coverslips were fixed with a 3.7% formaldehyde solution in Dulbecco's PBS for 10 minutes at room temperature. Cells were permeabilized with a 2% Triton X-100 solution, 2 ml per well, for 5 minutes at room temperature and washed twice in Dulbecco's PBS prior to staining.
To each well containing cells attached to coverslips a 2 ml volume of mouse monoclonal anti-alpha-tubulin (Cat # T-5168, Sigma Immuno Chemicals) diluted 1:2400 was added and the cells incubated at 37° C. in 5% CO2 for 45 minutes. Coverslips were rinsed twice with Dulbecco's PBS. A 2 ml volume of goat-anti-mouse-IgG-FITC conjugate (Cat # T-5262, Sigma Immuno Chemicals) diluted at 1:2400 was added and the cells incubated at 37° C. in 5% CO2 for 45 minutes. Coverslips were rinsed once with sterile distilled water and mounted on slides and observed under the microscope using epifluorescence illumination for the presence of abnormal aster and microtubule bundle formation.

[4] = system: purified bovine brain tubulin; assay: Tubulin polymerization (optical density at 350 nm); type: biochemical; conditions: for Polymerization?: 10 uM, 37 C.; for microtubule polymerizing activity compared to discodermolide: compared to the non-acetylated discodermolide
Experimental: Polymerization of purified bovine brain tubulin (Cytoskeleton Inc., Denver, Colo.) was followed by changes in the optical density of tubulin solutions at 350 nm in a Hitachi U-3010 spectrophotometer equipped with a SPR-10 electronic thermostatted cell holder. Stock solutions of tubulin were diluted on ice in G-PEM buffer (1 mM GTP, 80 mM PIPES, 1 mM EGTA, 0.5 mM magnesium chloride; pH 6.8) to a final concentration of 1 mg/ml. The instrument was zeroed on this solution at 2° C. Discodermolide, its analogs, or paclitaxel were then added to the tubulin solution to a final concentration of 10 μM, quickly mixed, and the absorbance monitored at 37° C.

[5] = system: A549 human adenocarcinoma and P388 murine leukemia cell lines; assay: Antitumor effects of discodermolide analogs compared to discodermolide; type: cell-based; conditions: compared to the non-acetylated discodermolide
Experimental: as §1, §2, §3
To quantitate the effects on cell proliferation and resulting IC50 values, 75 μl of warm growth media containing 5 mg/ml MTT is added to each well, cultures returned to the incubator, and left undisturbed for 90 minutes. […]

[6] = system: purified bovine brain tubulin; assay: Tubulin polymerization (optical density at 350 nm); type: biochemical; conditions: 10 uM, 6 C.-37 C.
A549 human lung cells = assay: Effect on cell cycle progression (G2/M block, propidium iodide flow cytometry); type: cell-based; conditions: 100 nM, 48 hr
Experimental: A549 human lung cells were used as cell cycle targets to compare the effects of discodermolide, discodermolide analogs and paclitaxel on perturbation of the cell cycle. Cell cycle analyses were performed as follows: A549 cells were incubated at 37° C. in 10% CO2 in air in the presence or absence of varying concentrations of discodermolide, discodermolide analogs or paclitaxel (purchased from Molecular Probes, Eugene Oreg.) for 48 hr.
Cells were harvested, fixed in ethanol and stained with 0.5 mg/ml of P.I. together with 0.1 mg/ml of RNAse A. This procedure permeabilizes live cells and allows entry of P.I. to stain DNA (propidium iodide also stains double stranded RNA, so RNAse is included in the preparation to exclude this possibility). Stained preparations were analyzed on a Coulter EPICS ELITE with 488 nm excitation with the dead cells excluded by back gating of P.I. preparations without detergent on forward and side scatter histograms. Fluorescence measurements and resulting DNA histograms were collected from at least 5,000 P.I. stained cells at an emission wavelength of 690 nm. Raw histogram data was further analyzed using a cell cycle analysis program (Multicycle, Phoenix Flow Systems).

| Compound | IC50 [1] [nM] | IC50 [2] [nM] | Microtubule Bundling? ([3]; 100 nM) | Microtubule bundling [3] | Polymerization? [4] | Microtubule Bundling? ([3]; 1000 nM) | Microtubule Bundling? ([3]; 10 nM) | microtubule polymerizing activity compared to discodermolide [4] | antitumor activity compared to discodermolide [5] | Polymerization? [6] | G2/M Block (A549 human lung cells) | Microtubule Bundling? ([3]; 100 nM, listed as Discodermolide9) | Polymerization? ([4]; listed as discodermolide 9) | Microtubule Bundling? ([3]; 100 nM, listed as paclitaxel) | Polymerization? ([4]; listed as paclitaxel) |
| --- | --- | --- | --- | --- | --- | --- | --- | --- | --- | --- | --- | --- | --- | --- | --- |
| C=CC=CC(C)C(OC(N)=O)C(C)C(OC(C)=O)C(C)CC(C)=CC(C)C(OC(C)=O)C(C)C=CC(CC1OC(=O)C(C)C(OC(C)=O)C1C)OC(C)=O (stereo not drawn) [Analog 1, Discodermolide-3,7,11,17-tetraacetate] | 837 | 1310 | No | negative | No and inactive |  |  |  |  |  |  |  |  |  |  |
| C=CC=CC(C)C(OC(N)=O)C(C)C(OC(C)=O)C(C)CC(C)=CC(C)C(O)C(C)C=CC(CC1OC(=O)C(C)C(OC(C)=O)C1C)OC(C)=O (stereo not drawn) [Analog 2, Discodermolide-3,7,17-triacetate] | > 6820 | > 1310 | No | negative | No and inactive | No |  |  |  |  |  |  |  |  |  |
| C=CC=CC(C)C(OC(N)=O)C(C)C(O)C(C)CC(C)=CC(C)C(OC(C)=O)C(C)C=CC(CC1OC(=O)C(C)C(OC(C)=O)C1C)OC(C)=O (stereo not drawn) [Analog 3, Discodermolide-3,7,11-triacetate] | 166 | 554 | No | negative | No and inactive |  |  |  |  |  |  |  |  |  |  |
| C=CC=CC(C)C(OC(N)=O)C(C)C(O)C(C)CC(C)=CC(C)C(O)C(C)C=CC(CC1OC(=O)C(C)C(OC(C)=O)C1C)OC(C)=O (stereo not drawn) [Analog 4, Discodermolide-3,7-diacetate] | 0.7 | 3.7 | Yes and induced similar microtubule bundle formation |  | Yes and able to induce tubulin polymerization |  | Yes | improved | improved |  |  |  |  |  |  |
| C=CC=CC(C)C(OC(N)=O)C(C)C(O)C(C)CC(C)=CC(C)C(OC(C)=O)C(C)C=CC(O)CC1OC(=O)C(C)C(OC(C)=O)C1C (stereo not drawn) [Analog 5, Discodermolide-3,11-diacetate] | 103 | 295 | No | negative | No and inactive |  |  |  |  |  |  |  |  |  |  |
| C=CC=CC(C)C(OC(N)=O)C(C)C(OC(C)=O)C(C)CC(C)=CC(C)C(O)C(C)C=CC(O)CC1OC(=O)C(C)C(OC(C)=O)C1C (stereo not drawn) [Analog 6, Discodermolide-3,17-diacetate] | 1150 | 736 | No |  | No and inactive | Yes and induced microtubule bundles only at 1000 nM |  |  |  |  |  |  |  |  |  |
| C=CC=CC(C)C(OC(N)=O)C(C)C(O)C(C)CC(C)=CC(C)C(O)C(C)C=CC(O)CC1OC(=O)C(C)C(OC(C)=O)C1C (stereo not drawn) [Analog 7, Discodermolide-3-acetate] | 9 | 9.4 | Yes and induced similar microtubule bundle formation |  | Yes and able to induce tubulin polymerization |  | Yes | improved | improved |  |  |  |  |  |  |
| C=CC=CC(C)C(OC(N)=O)C(C)C(O)C(C)CC(C)=CC(C)C(O)C(C)C=CC(CC1OC(=O)C(C)C(O)C1C)OC(C)=O (stereo not drawn) [Analog 8, Discodermolide-7-acetate] | 4 | 0.8 | Yes and induced similar microtubule bundle formation |  | able to induce tubulin polymerization | Yes |  | improved | improved | Yes |  |  |  |  |  |
| C=C/C=C\[C@H](C)[C@H](OC(N)=O)[C@@H](C)[C@H](O)[C@@H](C)C/C(C)=C\[C@H](C)[C@@H](O)[C@@H](C)/C=C\[C@@H](O)C[C@@H]1OC(=O)[C@H](C)[C@@H](O)[C@H]1C [Discodermolide 9, (+)discodermolide, reference compound] | 35 | 34 | Yes | routinely exhibit abnormal formation of multiple centriolar-radiating microtubules with extensive clusters of associated microtubular "bundles" | Yes |  | Yes |  |  |  | induced cell cycle, G2 /M block | induced the formation of microtubule bundles | induced the polymerization of purified tubulin |  |  |
| CC(=O)O[C@H]1C(=O)[C@@]2(C)[C@H]([C@H](OC(=O)c3ccccc3)[C@]3(O)C[C@H](OC(=O)[C@H](O)[C@@H](NC(=O)c4ccccc4)c4ccccc4)C(C)=C1C3(C)C)[C@]1(OC(C)=O)CO[C@@H]1C[C@@H]2O [Paclitaxel, reference compound] |  | 7.7 | Yes | routinely exhibit abnormal formation of multiple centriolar-radiating microtubules with extensive clusters of associated microtubular "bundles" | Yes |  |  |  |  |  |  |  |  | induced the formation of microtubule bundles | induced the polymerization of purified tubulin |

— patent US6127406A, “Discodermolide compounds and methods of use” (Harbor Branch Oceanographic Institution, Inc., priority 1999, dated 2000)
